The record followed here is patent US20200108066A1, “METHODS FOR MODULATING REGULATORY T CELLS AND IMMUNE RESPONSES USING CDK4/6 INHIBITORS” (Dana-Farber Cancer Institute, Inc., priority 2017, published 2020).

Series [1] concerns MMTV-rtTA/tetO-HER2 tumors. As to the kind of experiment: Combined abemaciclib and anti-PD-L1 therapy in MMTV-rtTA/tetO-HER2 tumor bearing mice. The format is in vivo, mouse. As for the experimental part:
After 3 days, the dose was dropped to 75 mg/kg daily and treatment with an anti-PD-L1 antibody (200 μg by intraperitoneal injection every 72 hours; BioXcell, clone 10F.9G2) or an isotype control antibody (200 μg by intraperitoneal injection every 72 hours) was commenced. Mice were euthanized using CO2 inhalation, and all mouse experiments were performed in accordance with protocols approved by the Institutional Animal Care and Use Committees of Dana-Farber Cancer Institute, Harvard Medical School, and Boston Children's Hospital.

Series [2] concerns thymocytes. Put plainly: Thymic mass and thymic cell populations in tumor-free FVB mice. The conditions noted are these: 12 days. Format: in vivo, mouse. As for the experimental part:
FIG. 10 includes 9 panels, identified as panels A, B, C, D, E, F, G, H, and I, which show the impact of CDK4/6 inhibition on immune cell populations and Treg biology. […] Panel C compares thymic mass with or without abemaciclib/palbociclib treatment. Thymic cell populations were quantified by flow cytometry.
Following mechanical digestion and RBC lysis, single cell suspensions were blocked with anti-CD16/32 for 20 minutes on ice. Cells were incubated with appropriate antibodies for 30 minutes on ice.
Murine antibodies used for flow cytometry include those recognizing CD45 (clone 30-F11), CD3 (clone 145-2C11), CD8 (clone 53-6.7), CD4 (clone RM4-5), PD-1 (clone 29F.1A12), Tim-3 (clone RMT3-23), CTLA-4 (clone UC10-4B9), LAG-3 (clone C9B7W), B220 (clone RA3-6B2), NK1.1 (clone PK136), CD11b (clone M1/70), Ly6G (clone 1A8), Ly6C (clone AL-21), FoxP3 (clone FJK-16s), and Ki-67 (clone 16A8). Human antibodies used for flow cytometry were those recognizing β2-microglobulin (clone 2M2) and HLA-A, B, C (clone W6/32). Antibodies were purchased from Biolegend with the exception of anti-FoxP3 from eBioscience and anti-Ly6C from BD Pharmigen. All antibodies used for flow cytometry were directly conjugated to fluorophores. […] Flow cytometry was performed on a LSRII (BD Biosciences, San Jose, Calif.) or FACSCANTOII (BD Biosciences), and data was analyzed using FlowJo® (TreeStar).

The subject of series [3] is MDA-MB-453 cells. Put plainly: Expression analysis (transcriptome, qPCR, Western blot, ELISA) in MDA-MB-453 cells treated in vitro. The format is cell-based, human. The conditions noted are these: SASP gene, abemaciclib 500 nM, 7 days, relative to DMSO. (Quantitative PCR measures a nucleic acid by following its amplification.)
Series [4] deals with MMTV-rtTA/tetO-HER2 tumors. Put plainly: Gene expression (transcriptome, qPCR) in MMTV-rtTA/tetO-HER2 tumor tissue. Format: in vivo, mouse.
Series [5] in a line: Plasma autoantibody ELISAs (anti-ANA, anti-dsDNA). The format is in vivo, mouse. As to conditions: tumor-free and tumor-bearing mice, 12 days. As for the experimental part:
For the last 24 hours, the culture media was replaced with serum free media. Following concentration of conditioned media using Amicon® Ultra centrifugal filters (Millipore, Billerica, Mass.), cytokines were analyzed according to the manufacturer's recommendations using the following kits: human IFN gamma ELISA Ready-SET-Go!® (Affymetrix eBioscience), human TNF alpha ELISA Ready-SET-Go!® (Affymetrix eBioscience), Verikine human IFN alpha ELISA kit (PBL assay science, Piscataway, N.J.), VeriKine-HS human IFN beta serum ELISA kit (PBL assay science), human IL-28B quantikine ELISA kit (R&D Systems, Minneapolis, Minn.), human […] Systems), and human IL-29 DuoSet ELISA (R&D Systems). Anti-ANA and anti-dsDNA ELISAs (Alpha Diagnostic, San Antonio, Tex.) were performed according to the manufacturer's instructions on plasma isolated from tumor free or tumor-bearing mice. Absorbance was measured on a SynergyTM Neo plate reader (BioTek, Winooski, Vt.) using Gen5TM software.

Series [6] has as its system tumor-infiltrating CD8+ and CD4+ T cells. As to the kind of experiment: Inhibitory co-receptor expression on intratumoral T cells (flow cytometry). Format: in vivo, mouse. As for the experimental part: Tumors were first mechanically disrupted by chopping, then chemically digested in dissociation buffer (2 mg/mL collagenase type IV (Worthington Biochemical, Lakewood, N.J.), 0.02 mg/mL DNase (Sigma Aldrich) in DMEM (Life Technologies) containing 5% FBS (Life Technologies), PenStrep (Hyclone)) with agitation at 37° C. for 45 minutes. After RBC lysis, single cell suspensions were blocked with anti-CD16/32 for 20 minutes on ice. Then, cells were incubated with the appropriate antibodies for 30 minutes on ice.
Murine antibodies used for flow cytometry include those recognizing CD45 (clone 30-F11), CD3 (clone 145-2C11), CD8 (clone 53-6.7), CD4 (clone RM4-5), PD-1 (clone 29F.1A12), Tim-3 (clone RMT3-23), CTLA-4 (clone UC10-4B9), LAG-3 (clone C9B7W), B220 (clone RA3-6B2), NK1.1 (clone PK136), CD11b (clone M1/70), Ly6G (clone 1A8), Ly6C (clone AL-21), FoxP3 (clone FJK-16s), and Ki-67 (clone 16A8). Human antibodies used for flow cytometry were those recognizing β2-microglobulin (clone 2M2) and HLA-A, B, C (clone W6/32). Antibodies were purchased from Biolegend with the exception of anti-FoxP3 from eBioscience and anti-Ly6C from BD Pharmigen. All antibodies used for flow cytometry were directly conjugated to fluorophores. The anti-mouse/rat FoxP3 staining set (eBioscience) was used for intracellular staining according to the manufacturer's instructions. 7AAD was used to distinguish live/dead cells, except for analyses requiring intracellular staining when eFluor® 450 fixable viability dye (eBioscience) or Zombie Yellow™ fixable viability dye (Biolegend) were used. To determine the absolute number of cells in a sample, CountBright™ absolute counting beads (Molecular Probes, ThermoFisher) were added. Flow cytometry was performed on a LSRII (BD Biosciences, San Jose, Calif.) or FACSCANTOII (BD Biosciences), and data was analyzed using FlowJo® (TreeStar).
Furthermore, the mRNA level of Ifng (the main effector cytokine of cytotoxic T cells) was more than 4-fold higher in treated bulk tumor tissue (FIG. 13D).

The test system of series [7] is MMTV-rtTA/tetO-HER2 tumors. Put plainly: Tumor growth in MMTV-rtTA/tetO-HER2 transgenic mice. Format: in vivo, mouse. The conditions noted are these: bulky tumors growing prior to treatment; three independent experiments. An excerpt:
Tumor formation was induced in MMTV-rtTA/tetO-HER2 mice with doxycycline as previously described in Goel et al. (2016) Cancer Cell 29:255-269. Female FVB mice (7 weeks of age) were purchased from Taconic Biosciences (Hudson, N.Y.). Female J:NU nude mice (8 weeks of age) were purchased from Jackson Labs (Bar Harbor, Me.). FVB CD45.2+ mice used as a source of T cells for in vitro studies were a kind gift from Dr. Daniel Tenen. For tumor growth studies in J:NU mice, MMTV-rtTA/tetO-HER2 tumor explants were orthotopically implanted bilaterally into nude mice, as previously described in Goel et al. (2016), supra. […] For tumor experiments in transgenic MMTV-rtTA/tetO-HER2 mice, tumors measured between 5 mm and 15 mm when treatment was begun. Mice were assigned into treatment groups so that the distribution of tumor volumes was even between groups. Tumor volume was calculated as previously described in Goel et al. (2016), supra and tumors were measured by caliper 2-3 times per week. For tumor growth curve analysis, one-way ANOVA tests were performed with correction for multiple comparisons using Sidak's multiple comparisons test. […]

The subject of series [8] is MDA-MB-453 and BT474 cells. Put plainly: Doxorubicin-induced senescence. The format is cell-based, human. The conditions noted are these: doxorubicin 200 nM 24 h, RNA 72 hours later. As for the experimental part: MDA-MB-453 and BT474 cells were treated with doxorubicin (Sigma Aldrich, 200 nM) for a period of 24 hrs. The cells were then cultured in fresh media for 72 hours after treatment, and RNA was extracted for qPCR.

Consider `CCN1CCN(Cc2ccc(Nc3ncc(F)c(-c4cc(F)c5nc(C)n(C(C)C)c5c4)n3)nc2)CC1` [abemaciclib], for which, in series [1], the “average reduction in tumor volume at day 13 of treatment” value is recorded as 35%. In addition, the total thymic mass entry in series [2] is listed as “significantly reduced”. For the same compound, the “Fold change (abema vs DMSO treatment): COL1A1” value in series [3] amounted to 0.752 fold. Further, the “Fold change (abema vs DMSO treatment): COL1A1” value in series [4] (SASP gene, MMTV-rtTA/tetO-HER2 tumors, abemaciclib 12 days, relative to vehicle) stood at 1.207 fold. Moreover, the “mRNA level of Ifng in bulk tumor tissue, treated vs vehicle” value in series [4] (qPCR) is recorded as “more than 4 fold”. In series [5], the “autoimmune phenotype: anti-nuclear antibody (ANA) or anti-dsDNA antibody levels” value is “No associated increases”. Further, in series [6] (6 days treatment vs vehicle), the “fractions of PD-1high and PD-1+/TIM-3+ cytotoxic T cells” value is “significantly reduced”; the “number of inhibitory receptors detected on any given cytotoxic T cell” value is on record as “lower”; the “reduction of PD-1+/TIM-3+ cytotoxic T cell fraction” value is 50%. Further, in series [6] (abemaciclib treated tumors, 6 days), the “CD8+ cells expressing none of the inhibitory receptors” value is “over 50%”. Also, in series [7], the “average reduction in tumor volume at the 12-day end point” value amounted to 40%.
Consider `COc1cccc2c1C(=O)c1c(O)c3c(c(O)c1C2=O)C[C@@](O)(C(=O)CO)C[C@@H]3O[C@H]1C[C@H](N)[C@H](O)[C@H](C)O1` [doxorubicin], for which, in series [8], the “beta galactosidase and interleukin-6 expression” value is “increased”.
As for `CC(=O)c1c(C)c2cnc(Nc3ccc(N4CCNCC4)cn3)nc2n(C2CCCC2)c1=O` [palbociclib], the total thymic mass result in series [2] was “significantly reduced”.
